The text below walks through data of ChEMBL document CHEMBL3098090, “Cytotoxic activity of gypenosides and gynogenin against non-small cell lung carcinoma A549 cells” (Bioorg Med Chem Lett, 2014).

In brackets after ≈: the same amount, converted by molar mass.

In this assay the test system is A549. In words: Cytotoxicity against human A549 cells after 48 hrs by MTT assay. The class given is functional, cell-based. To be noted: A549, 48 h. (In general: Tetrazolium assays rely on reduction of a dye to a coloured formazan, in cell work by metabolically active cells.)

The compound `CC(C)=CCC[C@](C)(O[C@@H]1O[C@H](CO)[C@@H](O)[C@H](O)[C@H]1O)[C@H]1CC[C@]2(C)[C@@H]1[C@H](O)C[C@@H]1[C@@]3(C)C[C@@H](O)[C@H](O[C@@H]4O[C@H](CO)[C@@H](O)[C@H](O)[C@H]4O[C@@H]4O[C@H](CO)[C@@H](O)[C@H](O)[C@H]4O)C(C)(C)[C@@H]3CC[C@]12C` showed an IC50 of 52.6 µg/mL (≈ 54.6 µM).

In turn, `CC(C)=CCC[C@](C)(O[C@@H]1O[C@H](CO[C@@H]2OC[C@@H](O)[C@H](O)[C@H]2O)[C@@H](O)[C@H](O)[C@H]1O)[C@H]1CC[C@]2(C)[C@@H]1[C@H](O)C[C@@H]1[C@@]3(C)C[C@@H](O)[C@H](O[C@@H]4O[C@H](CO)[C@@H](O)[C@H](O)[C@H]4O[C@@H]4O[C@H](CO)[C@@H](O)[C@H](O)[C@H]4O)C(C)(C)[C@@H]3CC[C@]12C` registered an IC50 of 106 µg/mL (≈ 96.7 µM).

As to `CC(C)=CCC[C@](C)(O)[C@H]1CC[C@]2(C)[C@@H]1[C@H](O)C[C@@H]1[C@@]3(C)C[C@@H](O)[C@H](O[C@@H]4O[C@H](CO)[C@@H](O)[C@H](O)[C@H]4O[C@@H]4O[C@H](CO)[C@@H](O)[C@H](O)[C@H]4O)C(C)(C)[C@@H]3CC[C@]12C`, the IC50 was 34.9 µg/mL (≈ 43.6 µM).

`CC(C)=CCC[C@@](C)(O)[C@H]1CC[C@]2(C)[C@@H]1[C@H](O)C[C@@H]1[C@@]3(C)C[C@@H](O)[C@H](O[C@@H]4O[C@H](CO)[C@@H](O)[C@H](O)[C@H]4O[C@@H]4O[C@H](CO)[C@@H](O)[C@H](O)[C@H]4O)C(C)(C)[C@@H]3CC[C@]12C` showed an IC50 of 51 µg/mL (≈ 63.6 µM).

For `CC(C)=CCC[C@](C)(O)[C@H]1CC[C@]2(C)[C@@H]1[C@H](O)C[C@@H]1[C@@]3(C)C[C@@H](O)[C@H](O)C(C)(C)[C@@H]3CC[C@]12C`, the IC50 was 12.5 µg/mL (≈ 26.3 µM).

For the compound `CC(C)=CCC[C@](C)(O)[C@H]1CC[C@]2(C)[C@@H]1[C@H](O)C[C@@H]1[C@@]3(C)CC[C@H](O[C@@H]4O[C@H](CO)[C@@H](O)[C@H](O)[C@H]4O[C@@H]4O[C@H](CO)[C@@H](O)[C@H](O)[C@H]4O)C(C)(C)[C@@H]3CC[C@]12C`, the IC50 was 55.4 µg/mL (≈ 70.5 µM).

For orientation: IC50 means the concentration needed to halve the response being measured. A higher IC50 goes with a need for much substance.
